Data taken from patent US20130266557A1, “METHODS FOR TREATMENT OF A SARCOMA USING AN EPIMETABOLIC SHIFTER (COENZYME Q10)” (priority 2009, published 2013).
Where two headings read alike, the source gives them in different places.

Tests used:
[1] = tested on: NCIES0808 cells; experiment: Antibody microarray analysis of protein levels; format: cell-based, human
Method: NCIES0808 cells were received from SBH in T165 flasks (×55). […] The cell morphology was examined closely under a microscope and the cells were noted to appear healthy with no visual signs of contamination or intracellular inclusions.
A 500 μM Q10 stock was made using the same protocol outlined for the PCR arrays. The media was exchanged in every flask with 50 μM and 100 μM Q10 media being placed into the appropriate flasks. The cells were incubated for 3 hr and 6 hr in the Q10 formulated media and the cells were harvested. Each flask was washed with 10 ml of ice cold PBS and trypsinized with 5 ml of trypsin-EDTA. The cells were harvested by gentle pipetting and the enzyme action was stopped by addition of 30 ml complete media. The cells were centrifuged at 1200 rpm for 5 minutes and media was aspirated from the tube leaving behind the cell pellet for protein extraction.
The proteins were extracted from the cells as per page 2; sub-category IA; of the manufacture's Product Information Sheet, Sigma®, Panarama® Antibody Microarray EPRESS Profiler725, cat#: XP725. The protein material from the whole cell lysates was conjugated with Cy3 and Cy5 dyes, GE Healthcare, product #: 25-8009-86 Cy3 and 25-8009-87 Cy5 as per the manufacturer's instructions outlined in the above mentioned product sheet sub-category IIA. […] The arrays were analyzed using a Fuji FLA-5100 UV scanner at the 532 nm for the Cy3 dye and 635 nm for the Cy5 dye. […]
The evaluation of changes in protein concentration due to the presence of Q10 was evaluated through the utilization of antibody microarray methods. […]
Once data sets were collected for all arrays, the data was scrutinized against three major parameters. […] An evaluation of the positive and negative Cy3/Cy5 data (included as controls on the chip) and a visual inspection of the spectral density for a given spot it was determined that and array data point with a spectral density less than 10 was approaching the background level and deemed statistically irrelevant and removed from the data series. […]

[2] = tested on: Ewing Sarcoma cell lines (JDT, 0808); experiment: Combined antibody array, 2-D gel/MS and real time PCR microarray; format: cell-based; details: in response to CoQ10 treatment
From the text: Functional groups were identified using “The Database for Annotation, Visualization and Integrated Discovery’ [DAVID] that subdivided the genes in 42 major clusters. Maximum number of genes from the list were segregated within the “Regulation of Cellular Process” and “Metabolic Process” functional groups with the other proteins spread over functional groups including regulation of transcription, programmed cell death, cell development, cytoskeleton, nucleus, proteosome and organ development.

[3] = tested on: cancer cell lines (SK-MEL-28, SK-MEL-2, SCC, PaCa2, HEP-G2) and control keratinocytes and melanocytes; experiment: Sensitivity and apoptotic response of a cell line panel (Example 1); format: cell-based; details: various levels of Coenzyme Q10
Method: In a first set of experiments, changes to cell morphology/physiology were evaluated by examining the sensitivity and apoptotic response of cells to CoQ10. A panel of skin cell lines including a control cell lines (primary culture of keratinocytes and melanocytes) and several skin cancers cell lines (SK-MEL-28, a non-metastatic skin melanoma; SK-MEL-2, a metastatic skin melanoma; or SCC, a squamous cell carcinoma; PaCa2, a pancreatic cancer cell line; or HEP-G2, a liver cancer cell line) were treated with various levels of Coenzyme Q10.

[4] = tested on: melanoma cell; experiment: Bcl2 level in the presence of VEGF; format: cell-based
From the text: The term “Multidimensional Intracellular Molecule (MIM)”, is an isolated version or synthetically produced version of an endogenous molecule that is naturally produced by the body and/or is present in at least one cell of a human. A MIM is capable of entering a cell and the entry into the cell includes complete or partial entry into the cell as long as the biologically active portion of the molecule wholly enters the cell. MIMs are capable of inducing a signal transduction and/or gene expression mechanism within a cell. MIMs are multidimensional because the molecules have both a therapeutic and a carrier, e.g., drug delivery, effect. MIMs also are multidimensional because the molecules act one way in a disease state and a different way in a normal state.

[5] = cited from earlier work
[6] = cited from earlier work; remark: listed apart in the source
[7] = human plasma; cited from earlier work
[8] = target: mitochondrial complex II (Homo sapiens, UniProt O14521+P21912+Q99643); details: cancer cells; Mazzio and Soliman 2004; cited from earlier work
[9] = tested on: skin cancer cells; details: culture of skin cancer cells but not normal cells; cited from earlier work

Chain of mitochondrial complex II (P31040 43-664 partner): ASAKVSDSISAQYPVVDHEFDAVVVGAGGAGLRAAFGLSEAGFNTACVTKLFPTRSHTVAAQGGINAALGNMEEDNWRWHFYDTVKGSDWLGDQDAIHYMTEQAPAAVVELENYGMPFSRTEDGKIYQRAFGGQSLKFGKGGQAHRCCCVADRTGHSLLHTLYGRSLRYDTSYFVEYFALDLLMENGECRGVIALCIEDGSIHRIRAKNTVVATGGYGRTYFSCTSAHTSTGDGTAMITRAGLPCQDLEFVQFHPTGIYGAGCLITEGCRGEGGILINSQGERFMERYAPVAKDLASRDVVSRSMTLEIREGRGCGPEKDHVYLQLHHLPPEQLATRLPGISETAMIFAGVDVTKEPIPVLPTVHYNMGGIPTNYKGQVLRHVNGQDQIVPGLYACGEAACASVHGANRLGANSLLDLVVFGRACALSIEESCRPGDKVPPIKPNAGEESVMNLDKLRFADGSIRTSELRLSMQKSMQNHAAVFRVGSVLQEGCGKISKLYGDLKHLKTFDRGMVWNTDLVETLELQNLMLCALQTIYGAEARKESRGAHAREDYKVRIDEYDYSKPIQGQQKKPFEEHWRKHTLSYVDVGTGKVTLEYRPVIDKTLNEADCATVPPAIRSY
Chain of mitochondrial complex II (P21912 29-280): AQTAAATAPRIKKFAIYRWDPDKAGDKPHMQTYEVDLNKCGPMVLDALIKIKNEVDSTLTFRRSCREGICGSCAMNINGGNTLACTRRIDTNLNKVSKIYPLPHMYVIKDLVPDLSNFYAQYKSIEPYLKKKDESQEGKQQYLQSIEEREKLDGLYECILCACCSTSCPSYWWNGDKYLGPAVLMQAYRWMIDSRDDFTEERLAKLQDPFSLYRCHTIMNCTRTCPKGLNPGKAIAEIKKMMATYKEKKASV
Chain of mitochondrial complex II (Q99643 30-169): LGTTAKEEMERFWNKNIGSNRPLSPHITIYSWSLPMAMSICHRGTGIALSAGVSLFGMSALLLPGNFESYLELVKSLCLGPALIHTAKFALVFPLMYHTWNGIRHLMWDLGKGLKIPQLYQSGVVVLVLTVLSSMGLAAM
Chain of mitochondrial complex II (O14521 57-159): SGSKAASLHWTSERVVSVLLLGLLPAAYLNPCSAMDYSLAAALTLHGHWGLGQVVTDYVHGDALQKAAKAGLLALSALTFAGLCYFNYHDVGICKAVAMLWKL

Coenzyme Q10 [CoQ10]
Expression of CBP/p300 ([1]; ES0808 cell line, compared to baseline): increase
Decrease in expression (value = protein), discussion list ([1]; NCIES 0808 cells in response to CoQ10): HDAC2 and HDAC4 and mTOR
FOXO1a expression ([1]; treatment with 100 μM CoQ10): up regulated
Number of gene products whose expression is significantly influenced [2]: over 90
Share of identified gene products down-regulated [2]: ~40%
Share of identified gene products up-regulated [2]: approximately 60%
Apoptotic response of cancer vs control cell lines [3]: induction of apoptosis and cell death in the cancer cells only
Level of Bcl2 [4]: decreased level of Bcl2
Solubility in water [5]: insoluble in water
Share of CoQ10 in the reduced form ([6]; blood (plasma)): ~96%
Share of CoQ10 in the reduced form ([6]; heart): about 61%
Share of CoQ10 in the reduced form ([6]; intenstine): ~95%
Share of CoQ10 in the reduced form ([6]; kidney): ~75%
Share of CoQ10 in the reduced form ([6]; liver): ~95%
Share of CoQ10 in the reduced form ([6]; muscle): ~65%
Share of the molecule found in the reduced form (Q10H2) [7]: 90%
Effect on Vmax of mitochondrial complex II activity [8]: increase the Vmax of mitochondrial complex II activity
Rate of apoptosis [9]: increase the rate of apoptosis
